Experimental data from ChEMBL document CHEMBL1131639, “Structural analysis of thrombin complexed with potent inhibitors incorporating a phenyl group as a peptide mimetic and aminopyridines as guanidine substitutes” (J Med Chem, 1998).
Where a SMILES comes first, the peptide text is derived from it.

Tests used:
Prothrombin [1] = target: T1, Prothrombin (Homo sapiens, UniProt P00734); test: (§1) Compound was evaluated for the inhibition of thrombin
[2] = target: Integrin alpha-IIb/beta-3 (Homo sapiens, UniProt P05106+P08514); test: Compound was evaluated for inhibition against Fibrinogen Receptor.; assay type: protein-complex assay
Sequence of Integrin alpha-IIb/beta-3 (P05106 27-788 limits assumed): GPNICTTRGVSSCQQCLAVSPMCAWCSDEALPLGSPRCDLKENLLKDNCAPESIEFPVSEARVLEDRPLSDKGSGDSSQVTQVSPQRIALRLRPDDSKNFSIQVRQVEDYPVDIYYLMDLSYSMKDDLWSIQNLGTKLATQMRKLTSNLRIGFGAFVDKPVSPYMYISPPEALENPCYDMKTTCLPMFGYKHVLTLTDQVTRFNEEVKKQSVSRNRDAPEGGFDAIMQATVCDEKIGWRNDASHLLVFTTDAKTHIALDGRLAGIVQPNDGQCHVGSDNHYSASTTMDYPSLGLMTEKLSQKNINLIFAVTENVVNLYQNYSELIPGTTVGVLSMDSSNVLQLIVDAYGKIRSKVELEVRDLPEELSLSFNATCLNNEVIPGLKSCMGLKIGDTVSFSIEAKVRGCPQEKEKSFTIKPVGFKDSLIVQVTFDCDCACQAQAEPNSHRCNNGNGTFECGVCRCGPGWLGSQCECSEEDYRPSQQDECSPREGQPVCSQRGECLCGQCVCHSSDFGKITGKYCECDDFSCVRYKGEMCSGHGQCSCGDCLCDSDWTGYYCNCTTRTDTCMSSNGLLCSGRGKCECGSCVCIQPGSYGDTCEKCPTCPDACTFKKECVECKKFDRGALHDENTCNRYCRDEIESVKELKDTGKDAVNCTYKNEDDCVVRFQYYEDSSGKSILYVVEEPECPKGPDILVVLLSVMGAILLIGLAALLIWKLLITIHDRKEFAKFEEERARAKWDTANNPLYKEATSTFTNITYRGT
Sequence of Integrin alpha-IIb/beta-3 (P08514 32-887 limits assumed): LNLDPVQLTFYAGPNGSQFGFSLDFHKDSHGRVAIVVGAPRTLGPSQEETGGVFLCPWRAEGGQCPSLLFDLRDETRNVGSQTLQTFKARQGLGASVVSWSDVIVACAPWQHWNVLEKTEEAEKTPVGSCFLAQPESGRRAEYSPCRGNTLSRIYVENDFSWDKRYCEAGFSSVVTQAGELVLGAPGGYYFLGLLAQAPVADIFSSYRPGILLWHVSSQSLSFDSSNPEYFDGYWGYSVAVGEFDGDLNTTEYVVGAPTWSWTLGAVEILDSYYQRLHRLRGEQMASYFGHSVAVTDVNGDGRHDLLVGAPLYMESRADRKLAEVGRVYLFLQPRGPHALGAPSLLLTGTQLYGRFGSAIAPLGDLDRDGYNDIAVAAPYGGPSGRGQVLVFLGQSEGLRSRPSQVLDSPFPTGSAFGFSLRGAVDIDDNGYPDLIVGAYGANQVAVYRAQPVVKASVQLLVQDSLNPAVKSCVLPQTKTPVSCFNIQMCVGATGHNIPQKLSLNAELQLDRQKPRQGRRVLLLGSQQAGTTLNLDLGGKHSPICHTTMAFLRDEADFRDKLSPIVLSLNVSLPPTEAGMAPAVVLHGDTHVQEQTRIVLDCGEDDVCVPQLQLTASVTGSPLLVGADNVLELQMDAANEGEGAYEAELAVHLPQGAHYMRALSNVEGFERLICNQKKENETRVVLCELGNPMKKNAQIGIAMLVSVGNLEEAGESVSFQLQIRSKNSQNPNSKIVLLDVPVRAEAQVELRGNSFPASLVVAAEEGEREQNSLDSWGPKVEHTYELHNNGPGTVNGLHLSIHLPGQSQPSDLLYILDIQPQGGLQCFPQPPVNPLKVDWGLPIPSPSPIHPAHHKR
Sequence of Integrin alpha-IIb/beta-3 (P08514 891-1039 limits assumed): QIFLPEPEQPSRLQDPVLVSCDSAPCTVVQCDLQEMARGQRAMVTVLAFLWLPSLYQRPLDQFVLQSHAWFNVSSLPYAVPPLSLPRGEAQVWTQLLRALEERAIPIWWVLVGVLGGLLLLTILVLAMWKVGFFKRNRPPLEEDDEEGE

Prothrombin [3] = target: T1, Prothrombin; test: as §1; remark: listed apart in the source

CC1CCN(C(=O)[C@H](CCCNc2ccc(N)cn2)NS(=O)(=O)c2cccc3c(N(C)C)cccc23)CC1
Ki0 (Prothrombin [1]): 360 nM

NC(N)=NCCCC[C@H](N)C(=O)NCC(=O)N[C@@H](CC(=O)O)C(=O)N[C@@H](Cc1cc2ccccc2[nH]1)C(=O)O (HELM PEPTIDE1{[N=C(N)NCCCC[C@H](N)C(=O)[*:2]].G.D.[O=C(O)[C@H](Cc1cc2ccccc2[nH]1)N[*:1]]}$$$$V2.0)
IC50 [2]: 1.7 µM

NC(N)=NCCCCNC(=O)[C@@H]1CCCN1C(=O)[C@H](N)Cc1ccccc1 (HELM PEPTIDE1{[dF].P.[N=C(N)NCCCCN[*:1]]}$$$$V2.0)
Ki (Prothrombin [3]): 0.18 µM
